In US9096593B2, “Compounds and methods for kinase modulation, and indications therefor” (Plexxikon Inc., priority 2009, dated 2015):

System: Osteoclast precursor cells
Assay: Osteoclast differentiation assay (acid phosphatase readout)
Type: cell-based
Conditions: RANKL and M-CSF
Procedure: Further, an osteoclast differentiation assay is used to assess the efficacy of Fms inhibitors for treating bone disease such as osteoarthritis. On day 0, Osteoclast Medium BulletKit (Lonza catalog #PT-8001, containing Media, FBS, L-Glutamine, PenStrep, RANKL, and M-CSF) media is thawed and the FBS, L-glutamine and PenStrep from the kit is added to 100 mL of Osteoclast Precursor Basal medium to provide the Osteoclast Precursor Growth Medium (OPGM). This is warmed to 37° C. Osteoclast precursor cells (Lonza catalog #2T-110) frozen in cryovial are warmed to 37° C. and transferred to a 50 mL conical tube. The cryovial is rinsed with OPGM and added dropwise to the conical tube of cells with swirling, then the volume is adjusted to 20-30 mL with addition of OPGM. The cells are centrifuged at 200×g for 15 minutes at room temperature and all but approximately 3 mL of supernatant is removed to a new conical tube. The cells are suspended in the remaining supernatant and the volume is adjusted to 10-15 mL with OPGM added dropwise with swirling. […] The cells are resuspended in the remaining supernatant, counted, and the volume adjusted with an appropriate amount of OPGM to provide approximately 1×10^5 cells/mL. […] The absorbance of each well is read at 405 nm on Safire plate reader. The absorbance reading is plotted vs. concentration to provide the IC50 for each compound.

Compound: Clc1cnc2[nH]cc(Cc3ccc(NCc4ccc(Cl)nc4)nc3)c2c1 [Compound P-2003]
- IC50: < 100 nM
